Results taken from US20220135591A1, “HETEROCYCLIC COMPOUNDS AS INHIBITORS OF MONOACYLGLYCEROL LIPASE (MAGL)” (Hoffmann-La Roche Inc., priority 2019, published 2022).

The compounds below were run against T1, MAGL (recombinant wild-type) (Homo sapiens, UniProt Q99685) (assay: 4-NPA assay: MAGL inhibitory activity by hydrolysis of 4-nitrophenylacetate, absorbance at 405 nm). Conditions: 4-NPA assay (values without footnote [b]).
T1 sequence (Q99685 1-303): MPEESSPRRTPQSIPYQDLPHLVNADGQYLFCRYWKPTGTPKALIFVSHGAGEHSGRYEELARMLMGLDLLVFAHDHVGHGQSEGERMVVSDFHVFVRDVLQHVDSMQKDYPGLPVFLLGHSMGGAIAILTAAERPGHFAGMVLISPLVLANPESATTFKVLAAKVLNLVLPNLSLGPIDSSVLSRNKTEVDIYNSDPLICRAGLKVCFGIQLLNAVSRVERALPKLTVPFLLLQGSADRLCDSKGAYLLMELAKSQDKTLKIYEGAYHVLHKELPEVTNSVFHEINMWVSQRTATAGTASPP
Format: biochemical
Description: Compounds were profiled for MAGL inhibitory activity by measuring the enzymatic activity of MAGL by following the hydrolysis of 4-nitrophenylacetate resulting in 4-nitrophenol, which absorbs at 405-412 nm (G. G. Muccioli, G. Labar, D. M. Lambert, Chem. Bio. Chem. 2008, 9, 2704-2710). This assay is hereinafter abbreviated “4-NPA assay”.
The assay was carried out in 384 well assay plates (black with clear bottom, non-binding surface treated, Corning Ref. 3655) in a total volume of 40 μL. Compound dilutions were made in 100% DMSO (VWR Chemicals 23500.297) in a polypropylene plate in 3-fold dilution steps to give a final concentration range in the assay from 25 μM to 1.7 nM. 1 μL compound dilutions (100% DMSO) were added to 19 μL MAGL (recombinant wild-type) in assay buffer (50 mM TRIS (GIBCO, 15567-027), 1 mM EDTA (Fluka, 03690-100 mL)). The plate was shaked for 1 min at 2000 rpm (Variomag Teleshake) and then incubated for 15 min at RT. To start the reaction, 20 μL 4-Nitrophenlyacetate (Sigma N-8130) in assay buffer with 6% EtOH was added. The final concentrations in the assay were 1 nM MAGL and 300 μM 4-Nitrophenylacetate. After shaking (1 min, 2000 rpm) and 5 min incubation at RT, the absorbance at 405 nm was measured for a first time (Molecular Devices, SpectraMax Paradigm). A second measurement was then done after incubation for 80 min at RT. From the two measurements, the slope was calculated by subtracting the first from the second measurement.

Row | Structure (SMILES) | IC50 [µM]
1 | Cc1ccc2oc(N3CCN(C(=O)c4ccc5nc(-c6ccccc6)oc5c4)CC3)nc2n1 [Example 1, (4-(5-Methyloxazolo[4,5-b]pyridin-2-yl)piperazin-1-yl)(2-phenylbenzo[d]oxazol-6-yl)methanone] | 0.115
2 | O=C(c1ccc2nc(-c3ccccc3)oc2c1)N1CCN(c2nc3ncccc3o2)CC1 [Example 2, (4-(oxazolo[4,5-b]pyridin-2-yl)piperazin-1-yl)(2-phenylbenzo[d]oxazol-6-yl)methanone] | 0.194
3 | Cc1ccc2oc(N3CCN(C(=O)c4ccc5nc(N6CCCC6)oc5c4)CC3)nc2n1 [Example 3, (4-(5-methyloxazolo[4,5-b]pyridin-2-yl)piperazin-1-yl)(2-(pyrrolidin-1-yl)benzo[d]oxazol-6-yl)methanone] | 2.33
4 | Cc1ccc2oc(N3CCN(C(=O)c4ccc(-c5noc(C(C)(C)CO)n5)cc4)CC3)nc2n1 [Example 7, (4-(5-(1-hydroxy-2-methylpropan-2-yl)-1,2,4-oxadiazol-3-yl)phenyl)(4-(5-methyloxazolo[4,5-b]pyridin-2-yl)piperazin-1-yl)methanone] | 0.262
5 | CC(C)(C)c1nc(-c2ccc(C(=O)N3CCN(c4nc5nccc(Cl)c5o4)CC3)cc2)no1 [Example 8, (4-(5-(tert-butyl)-1,2,4-oxadiazol-3-yl)phenyl)(4-(7-chlorooxazolo[4,5-b]pyridin-2-yl)piperazin-1-yl)methanone] | 0.247
6 | Cc1ccc2oc(N3CCN(C(=O)c4ccc(-c5noc(C(C)(C)CF)n5)cc4)CC3)nc2n1 [Example 11, (4-(5-(1-fluoro-2-methylpropan-2-yl)-1,2,4-oxadiazol-3-yl)phenyl)(4-(5-methyloxazolo[4,5-b]pyridin-2-yl)piperazin-1-yl)methanone] | 0.049
7 | CC(C)(C)Cc1nc(-c2ccc(C(=O)N3CCN(c4nc5ncccc5o4)CC3)cc2)no1 [Example 13, (4-(5-neopentyl-1,2,4-oxadiazol-3-yl)phenyl)(4-(oxazolo[4,5-b]pyridin-2-yl)piperazin-1-yl)methanone] | 0.037
8 | CC(C)(C)c1nc(-c2ccc(C(=O)N3CCN(c4nc5ncccc5o4)CC3)cc2)no1 [Example 14, (4-(5-(tert-butyl)-1,2,4-oxadiazol-3-yl)phenyl)(4-(oxazolo[4,5-b]pyridin-2-yl)piperazin-1-yl)methanone] | 0.128
9 | CCC(CC)c1nc2ccc(C(=O)N3CCN(c4nc5nc(C)ccc5o4)CC3)cc2o1 [Example 15, [2-(1-ethylpropyl)-1,3-benzoxazol-6-yl]-[4-(5-methyloxazolo[4,5-b]pyridin-2-yl)piperazin-1-yl]methanone] | 0.352
10 | Cc1ccc2oc(N3CCN(C(=O)c4ccc5nc(C6CCCCC6)oc5c4)CC3)nc2n1 [Example 17, (2-cyclohexyl-1,3-benzoxazol-6-yl)-[4-(5-methyloxazolo[4,5-b]pyridin-2-yl)piperazin-1-yl]methanone] | 0.036
11 | Cc1ccc2oc(N3CCN(C(=O)c4ccc5nc(CCC(F)(F)F)oc5c4)CC3)nc2n1 [Example 18, [4-(5-methyloxazolo[4,5-b]pyridin-2-yl)piperazin-1-yl]-[2-(3,3,3-trifluoropropyl)-1,3-benzoxazol-6-yl]methanone] | 0.434
12 | CC/C=C/c1nc2ccc(C(=O)N3CCN(c4nc5nc(C)ccc5o4)CC3)cc2o1 [Example 21, [2-[(E)-but-1-enyl]-1,3-benzoxazol-6-yl]-[4-(5-methyloxazolo[4,5-b]pyridin-2-yl)piperazin-1-yl]methanone] | 0.184
13 | Cc1ccc2oc(N3CCN(C(=O)c4ccc5nc(C6CC6)oc5c4)CC3)nc2n1 [Example 22, (2-cyclopropyl-1,3-benzoxazol-6-yl)-[4-(5-methyloxazolo[4,5-b]pyridin-2-yl)piperazin-1-yl]methanone] | 1.25
14 | CC(=O)Cc1nc(-c2ccc(C(=O)N3CCN(c4nc5nc(Cl)ccc5o4)CC3)cc2)no1 [Example 23, 1-[3-[4-[4-(5-chlorooxazolo[4,5-b]pyridin-2-yl)piperazine-1-carbonyl]phenyl]-1,2,4-oxadiazol-5-yl]propan-2-one] | 1.55
15 | CC(C)(F)c1nc(-c2ccc(C(=O)N3CCN(c4nc5nc(Cl)ccc5o4)CC3)cc2)no1 [Example 24, [4-(5-chlorooxazolo[4,5-b]pyridin-2-yl)piperazin-1-yl]-[4-[5-(1-fluoro-1-methyl-ethyl)-1,2,4-oxadiazol-3-yl]phenyl]methanone] | 0.074

Results, then the compound that gave them:

Row | IC50 [µM] | Structure (SMILES)
16 | 0.027 | Cc1ccc2oc(N3CCN(C(=O)c4ccc(-c5noc(C(C)(C)C)n5)cc4)CC3)nc2n1 [Example 4, (4-(5-(tert-butyl)-1,2,4-oxadiazol-3-yl)phenyl)(4-(5-methyloxazolo[4,5-b]pyridin-2-yl)piperazin-1-yl)methanone]
17 | 0.009 | Cc1ccc2oc(N3CCN(C(=O)c4ccc(-c5noc(CC(C)(C)C)n5)cc4)CC3)nc2n1 [Example 5, (4-(5-methyloxazolo[4,5-b]pyridin-2-yl)piperazin-1-yl)(4-(5-neopentyl-1,2,4-oxadiazol-3-yl)phenyl)methanone]
18 | 0.025 | Cc1ccc2oc(N3CCN(C(=O)c4ccc5nc(N6CC7(CCCC7)C6)oc5c4)CC3)nc2n1 [Example 6, (2-(2-azaspiro[3.4]octan-2-yl)benzo[d]oxazol-6-yl)(4-(5-methyloxazolo[4,5-b]pyridin-2-yl)piperazin-1-yl)methanone]
19 | 0.027 | CC(C)(C)Cc1nc(-c2ccc(C(=O)N3CCN(c4nc5nccc(Cl)c5o4)CC3)cc2)no1 [Example 9, (4-(7-chlorooxazolo[4,5-b]pyridin-2-yl)piperazin-1-yl)(4-(5-neopentyl-1,2,4-oxadiazol-3-yl)phenyl)methanone]
20 | 0.002 | CC(C)(C)Cc1nc(-c2ccc(C(=O)N3CCN(c4nc5nc(Cl)ccc5o4)CC3)cc2)no1 [Example 10, (4-(5-chlorooxazolo[4,5-b]pyridin-2-yl)piperazin-1-yl)(4-(5-neopentyl-1,2,4-oxadiazol-3-yl)phenyl)methanone]
21 | 0.008 | CC(C)(C)c1nc(-c2ccc(C(=O)N3CCN(c4nc5nc(Cl)ccc5o4)CC3)cc2)no1 [Example 12, (4-(5-(tert-butyl)-1,2,4-oxadiazol-3-yl)phenyl)(4-(5-chlorooxazolo[4,5-b]pyridin-2-yl)piperazin-1-yl)methanone]
22 | 0.01 | CC(C)(C)Cc1nnc(-c2ccc(C(=O)N3CCN(c4nc5nc(Cl)ccc5o4)CC3)cc2)o1 [Example 16, [4-(5-chlorooxazolo[4,5-b]pyridin-2-yl)piperazin-1-yl]-[4-[5-(2,2-dimethylpropyl)-1,3,4-oxadiazol-2-yl]phenyl]methanone]
23 | 0.002 | CC(C)(C)Cn1cc(-c2ccc(C(=O)N3CCN(c4nc5nc(Cl)ccc5o4)CC3)cc2)cn1 [Example 19, [4-(5-chlorooxazolo[4,5-b]pyridin-2-yl)piperazin-1-yl]-[4-[1-(2,2-dimethylpropyl)pyrazol-4-yl]phenyl]methanone]
24 | 0.019 | CC(C)(CF)c1nc(-c2ccc(C(=O)N3CCN(c4nc5nc(Cl)ccc5o4)CC3)cc2)no1 [Example 20, (4-(5-chlorooxazolo[4,5-b]pyridin-2-yl)piperazin-1-yl)(4-(5-(1-fluoro-2-methylpropan-2-yl)-1,2,4-oxadiazol-3-yl)phenyl)methanone]

The compounds below were run against T2, MAGL (Homo sapiens, UniProt Q99685) (assay: 2-AG assay: MAGL inhibitory activity by hydrolysis of 2-arachidonoylglycerol to arachidonic acid, mass spectrometry). Conditions: 2-AG assay (values marked [b]).
T2 sequence (Q99685 1-303): T1 sequence (Q99685 1-303)
Format: biochemical
How it was run: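 Human MAGL […] was preincubated 15 min at RT with compound ([…], 3-fold steps) in 50 mM Tris, 1 mM EDTA, 0.01% Tween. 2-AG (8 μM) was then added for 30 min at RT. Arachidonic acid was quantified by RapidFire SPE–triple quadrupole MS in negative ESI as its ratio to a d8-arachidonic acid standard.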

Row | IC50 [µM] | Structure (SMILES)
25 | 0.051 | Cc1ccc2oc(N3CCN(C(=O)c4cnc(-c5nnn(CC(C)(C)C)n5)c(C)c4)CC3)nc2n1 [Example 309, [6-[2-(2,2-dimethylpropyl)tetrazol-5-yl]-5-methyl-3-pyridyl]-[4-(5-methyloxazolo[4,5-b]pyridin-2-yl)piperazin-1-yl]methanone]
26 | 0.167 | COc1cc(C(=O)N2CCN(c3nc4nc(C)ccc4o3)CC2)cnc1-c1nnn(CC(C)(C)C)n1 [Example 310, [6-[2-(2,2-dimethylpropyl)tetrazol-5-yl]-5-methoxy-3-pyridyl]-[4-(5-methyloxazolo[4,5-b]pyridin-2-yl)piperazin-1-yl]methanone]
27 | 0.061 | COc1cc(C(=O)N2CCN(c3nc4nc(Cl)ccc4o3)CC2)cnc1-c1nnn(CC(C)(C)C)n1 [Example 311, [4-(5-chlorooxazolo[4,5-b]pyridin-2-yl)piperazin-1-yl]-[6-[2-(2,2-dimethylpropyl)tetrazol-5-yl]-5-methoxy-3-pyridyl]methanone]
